# Data reported in article PMC7713230, “Upconversion NIR-II fluorophores for mitochondria-targeted cancer imaging and photothermal therapy” (Nature Communications, 2020).
# What was measured:
# [1] = system: mitochondria of 143B cells; experiment: Mitochondrial colocalization by confocal laser scanning microscopy; type: cell-based, human; conditions: concentrations lower than 10 nM, same experimental conditions
# Experimental: […] Scale bar: 10 μm. Results in (a–f) are representative of three independent experiments.
# 143B (50,000 cells) were seeded in round discs and incubated in 1 mL of DMEM medium (pH = 7.4) containing 10% FBS for 24 h. After replacing the medium with 1 mL of fresh medium, 3k-PEG, H4-PEG, and H4-PEG-PT were added, respectively, and the cells were allowed to incubate for 6 h. After removing the medium and subsequently washing with PBS buffer (pH = 7.4) thrice, mitotracker green was added to stain the mitochondria for 30 min. The cells were viewed under a FV1200 CLSM (Olympus) and Leica SPE.
# [2] = system: 143B cells; experiment: Detection of ATP level; type: cell-based, human; conditions: CCCP 40 μM 6 h, positive control, control = 100%
# Experimental: (§1) 20 mm confocal dishes, and cultured for 12 h at a density of 1×10^5 cells/well. Then, 200 µL of H4-PEG-PT (64 µM) was introduced into the confocal dishes. After 7 h incubation, 143B and HepG2 cells were washed twice with PBS, stained with Hoechst staining kit in PBS for 20 min. The tumor cell samples were immediately examined by an inverted Zeiss Axiovert 200 fluorescence microscopy at a 20× objective, using a high-pressure mercury lamp as an excitation source.
# (§2) 143B cells (6×103) were incubated in 96 wells plate at 37 °C for 12 h. Then, cells were treated with 64 μM H4-PEG-PT or 40 μM CCCP for 6 h and irradiated by an 808 nm laser for 3 min each well. After irradiation, ATP level was immediately determined by an ATP determination kit (cat. no. A22066) from Thermo Fisher Scientific with 1% Triton X 100 water solution for cell permeabilization. After 10 min incubation, the luminescence intensity was then detected using a microplate reader (TECAN, Infinite M200 […]
# (§3) Detection of mitochondrial membrane potential by JC-1 assay
# (§4) 143B cells (6×103) were incubated in 96 wells plate for 12 h. Then, cells were treated with H4-PEG-PT (64 μM), or CCCP (40 μM) for 6 h and irradiated by an 808 nm laser for 3 min. […] Fluorescence intensity was then detected using a microplate reader (TECAN, Infinite M200 Pro) with excitation at 485 nm (green) or 535 nm (red) and emissions at 535 nm (green) or 595 nm (red). […]
# [3] = system: 143B cells; experiment: Mitochondrial membrane potential by JC-1 assay; type: cell-based, human; conditions: CCCP 40 μM 6 h, positive control, control = 100%
# Experimental: as §1, §2, §3, §4
# [4] = system: osteosarcoma cell lines (e.g., 143B cells); conditions: cited from earlier work
# Description: Osteosarcoma is the third most common malignant tumor and accounts for more than 60% of all malignant bone tumors in children and adolescents. Surgical excision of all primary and metastatic tumors remains the essential strategy behind osteosarcoma treatment. However, current diagnostic tools allow detection of only 8–15% of bone or lung metastatic patients[52],[53]. Thus, it is urgent to develop new theranostic strategies for early diagnosis, therapy, and monitoring responses to osteosarcoma therapies[54],[55]. The oligopeptide PPSHTPT (PT) was first designed to mimic the properties of th ...
molecule,measurement,setting,value
CN1/C(=C/C=C/c2n(Cc3ccc(CCl)cc3)c3cc(Cl)c(Cl)cc3[n+]2Cc2ccc(CCl)cc2)Oc2ccccc21 [Mitotracker Green],fluorescent intensity in mitochondrial imaging,[1],too weak to be detected
"N#CC(C#N)=NNc1cccc(Cl)c1 [CCCP, carbonyl cyanide m-chlorophenylhydrazone]",cellular ATP level,[2],~ 78%
same,ratio of J-aggregates to monomers,[3],63%
"PPSHTPT [osteosarcoma-targeting oligopeptide PPSHTPT, mimics osteocalcin]",affinity and specificity for osteosarcoma cell lines,[4],high affinity and specificity
